This is an account of results in patent US10640527B2, “Mesitylene-cored amphiphiles and uses thereof” (Industry-University Cooperation Foundation Hanyang …, priority 2016, dated 2020).

Data set [1] is described as follows: Critical micelle concentration by fluorophore encapsulation using diphenylhexatriene (DPH). The following applies: aqueous solution. The class given is physicochemical. Here is the method: A method of measuring a CMC is not particularly limited, and those methods widely known in the related field may be used. For example, a CMC may be measured by a fluorophore encapsulation method using diphenylhexatriene (DPH).
(§1) Specifically, a CMC was measured by a fluorophorescent encapsulation method using diphenylhexatriene (DPH) and an Rh of a micelle formed by each formulation (1.0 wt %) was measured using a dynamic light scattering (DLS) experiment.

Data set [2] can be described thus: Water-solubility. The class given is physicochemical. The following applies: in water.
Data set [3] addresses T1, melibiose permease (MelBSt) (Salmonella typhimurium, UniProt P30878).
T1 construct: made in house; host or cells: DW2 cells (ΔmelB and ΔlacZY), Salmonella typhimurium DW2
Briefly: MelBSt extraction from membranes and thermal stability, SDS-PAGE and Western blotting. To be noted: 1.5 wt %, 90 minutes; for MelBSt protein extraction efficiency compared with DDM: 45° C.; for MelBSt extraction ability compared with DDM: 55° C. Format: biochemical. The procedure: An experiment for measuring the structural stability of Salmonella typhimurium melibiose permease (MelBSt) according to MGAs in an aqueous solution was performed. After MelBSt proteins were extracted from a membrane using MGAs or DDM, the amount and structure of extracted proteins were analyzed by SDS-PAGE and western blotting. The concentration of used amphiphiles was 1.5 wt %, and proteins were extracted at four different temperatures of 0, 45, 55 and 65° C. to evaluate both the protein extraction efficiency and stabilizing ability of a compound. A membrane sample which had not been treated with MGAs or DDM was used as a control group.
Specifically, MelBSt stability solubilized in DDM or MGAs was evaluated according to a method described in 2010 in a research article (P. S. Chae et al., Nat. Methods 2010, 7, 1003-1008.) by the inventors of the present invention. Proteins (MelBSt) were produced using plasmid pK95ΔAHB/WT MelBSt/CH10 encoding the wild-type MelB with a 6-His tag at the C-terminus and Salmonella typhimurium DW2 cells (ΔmelB and ΔlacZY). Cell growth and membrane preparation was performed according to a method described in a research article (Nat. Commun. 2014, 5, 3009) by A. S. Ethayathulla, et al. A protein assay was carried out using a Micro BCA kit (Thermo Scientific, Rockford, Ill.). In order to measure protein solubilization, a membrane sample (final protein concentration was 10 mg/mL) containing MelBSt was incubated with a solubilization buffer (20 mM sodium phosphate, pH 7.5, 200 mM NaCl, 10% glycerol and 20 mM melibiose) and 1.5% (w/v) DDM or MGA (MGA-C10, MGA-C11, MGA-C12, MGA-C13, MGA-C14 or MGA-C15) at four different temperatures of 0, 45, 55 and 65° C. for 90 minutes. After ultracentrifugation at 355,590 g in a Beckman Optima™ MAX Ultracentrifuge using a TLA-100 rotor for 45 min at 4° C., 20 μg of a protein was separated by SDS-16% PAGE and immunoblotted with a Penta-His-HRP antibody (Qiagen, Germantown, Md.). MelBSt was measured by an ImageQuant LAS 4000 Biomolecular Imager (GE Healthcare Life Sciences) using a SuperSignal West Pico chemiluminescent substrate.

A short description of data set [4]: Hydrodynamic radius / size distribution of micelles by dynamic light scattering (DLS). The class given is physicochemical. The following applies: 1.0 wt % amphiphile. Here is the method: A method of measuring a radius of the micelle is not particularly limited, and those methods widely known in the related field may be used, for example, a dynamic light scattering (DLS) experiment may be used for measurement.
as §1

Data set [5] deals with human β2-adrenergic receptor (β2AR) (Homo sapiens, UniProt P07550). Briefly: Size exclusion chromatography (SEC) of β2AR solubilized in amphiphile. Here is the method:
A size exclusion chromatography (SEC) experiment was conducted to determine the β2AR crystallization effect and β2AR stability preservation effect by MGA-C13 or DDM.
Specifically, β2AR purified by 0.1% DDM was mixed with a DDM or MGA-C13 buffer (20 mM HEPES pH 7.5, 100 mM NaCl, 0.2% of each amphiphile) and incubated for 30 minutes. The sample was applied to a Superdex-200 10/300 GL column (GE Healthcare Life Sciences) at a rate of 0.5 ml/min, fluorescence was recorded at 345 nm, and an […] wavelength was 295 nm. A running buffer contained 20 mM HEPES (pH 7.5) and 100 mM NaCl, and contained each amphiphile (DDM or MGA-C13) or not.
(In gel filtration, larger molecules generally elute earlier.)

Data set [6] has as its target T2, uric acid-xanthine/H+ symporter (UapA) (Emericella nidulans, UniProt Q07307, G411V).
T2 construct: GFP; made in house; host or cells: Saccharomyces cerevisiae FGY217
Briefly: UapA structural (thermal) stability, CPM assay. The class given is biochemical, Aspergillus nidulans. The procedure:
An experiment for measuring the structural stability of uric acid-xanthine/H^+ symporter (UapA) solubilized in MGAs in an aqueous solution was performed. The structural stability of UapA was measured using a CPM assay, and was measured at MGAs and DDM concentrations of (a) CMC+0.04 wt %, or (b) CMC+0.2 wt %.
Specifically, a UapA protein is a uric acid-xanthine/H^+ symporter in Aspergillus nidulans. Protein stability was measured by fluorescence spectroscopy using N-[4-(7-diethylamino-4-methyl-3-coumarinyl)phenyl]maleimide (CPM) which is a sulfhydryl-specific fluorophore. A free sulfhydryl group of a cysteine residue is in the interior of a protein, but becomes accessible to a solvent upon protein unfolding. CPM becomes fluorescent by a reaction with the free thiol, and thus provides as a protein unfolding sensor. In order to measure thermal stability, first, UapAG411V1-11 was expressed in the Saccharomyces cerevisiae FGY217 strain by fusion with GFP, and separated in a sample buffer (20 mM Tris (pH 7.5), 150 mM NaCl, 0.03% DDM and 1 mM xanthine) according to a method described in a research article (Mol. Membr. Biol. 2013, 30, 32-42) by J. Leung et al. A UapA protein was concentrated to about 10 mg/ml using a 100 kDa molecular weight cut-off filter (Millipore). The concentrated protein was diluted to a ratio of 1:150 with each buffer including DDM or MGA (MGA-C10, MGA-C11, MGA-C12, MGA-C13, MGA-C14 or MGA-C15) at a concentration of CMC+0.04 wt % or CMC+0.2 wt % in a Greiner 96-well plate. A CPM dye (Invitrogen) stored in DMSO (Sigma) was diluted with a dye buffer (20 mM Tris (pH 7.5), 150 mM NaCl, 0.03% DDM and 5 mM EDTA), and 3 μl of the diluted dye was added to each protein sample. The reaction mixture was incubated at 40° C. for 120 minutes. Fluorescence emission was monitored using a microplate spectrofluorometer, with an excitation wavelength at 387 nm and an emission wavelength at 463 nm. Relative maximum fluorescence was used to calculate a percentage of relative folded protein remaining after 120 minutes at 40° C. Relative unfolded proteins were plotted against time using GraphPad Prism.
Specifically, a UapA stabilization effect was evaluated by the same method as in Experimental Example 2 using MGA-C13, MGA-C14, MNG-3 or DDM at a concentration of (a) CMC+0.04 wt % or (b) CMC+0.2 wt %.

T1 sequence (P30878 whole entry): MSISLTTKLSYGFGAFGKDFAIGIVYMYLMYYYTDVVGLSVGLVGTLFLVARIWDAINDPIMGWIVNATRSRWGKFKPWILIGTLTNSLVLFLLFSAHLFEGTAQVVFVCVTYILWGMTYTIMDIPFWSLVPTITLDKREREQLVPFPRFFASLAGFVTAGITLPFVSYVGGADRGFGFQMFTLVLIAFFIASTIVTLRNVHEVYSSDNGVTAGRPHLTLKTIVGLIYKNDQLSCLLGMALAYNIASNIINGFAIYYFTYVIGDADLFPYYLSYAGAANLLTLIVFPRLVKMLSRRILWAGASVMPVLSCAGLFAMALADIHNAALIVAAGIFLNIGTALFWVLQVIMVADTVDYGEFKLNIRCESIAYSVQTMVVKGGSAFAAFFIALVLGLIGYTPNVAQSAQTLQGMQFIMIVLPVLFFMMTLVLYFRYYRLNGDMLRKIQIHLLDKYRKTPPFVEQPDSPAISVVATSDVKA
human β2-adrenergic receptor (β2AR), sequence (P07550 whole entry): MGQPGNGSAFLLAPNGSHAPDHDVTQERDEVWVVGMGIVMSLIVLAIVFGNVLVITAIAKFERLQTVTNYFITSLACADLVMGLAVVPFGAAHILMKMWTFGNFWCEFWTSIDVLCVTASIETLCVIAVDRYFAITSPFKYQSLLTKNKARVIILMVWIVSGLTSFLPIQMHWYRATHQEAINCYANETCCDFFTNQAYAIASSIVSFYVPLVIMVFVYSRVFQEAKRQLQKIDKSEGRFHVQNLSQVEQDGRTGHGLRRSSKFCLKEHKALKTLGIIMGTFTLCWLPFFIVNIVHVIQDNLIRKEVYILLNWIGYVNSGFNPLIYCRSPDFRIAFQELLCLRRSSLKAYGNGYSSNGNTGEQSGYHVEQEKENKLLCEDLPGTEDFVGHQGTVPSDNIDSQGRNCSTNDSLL
T2 sequence (Q07307 12-574 G411V): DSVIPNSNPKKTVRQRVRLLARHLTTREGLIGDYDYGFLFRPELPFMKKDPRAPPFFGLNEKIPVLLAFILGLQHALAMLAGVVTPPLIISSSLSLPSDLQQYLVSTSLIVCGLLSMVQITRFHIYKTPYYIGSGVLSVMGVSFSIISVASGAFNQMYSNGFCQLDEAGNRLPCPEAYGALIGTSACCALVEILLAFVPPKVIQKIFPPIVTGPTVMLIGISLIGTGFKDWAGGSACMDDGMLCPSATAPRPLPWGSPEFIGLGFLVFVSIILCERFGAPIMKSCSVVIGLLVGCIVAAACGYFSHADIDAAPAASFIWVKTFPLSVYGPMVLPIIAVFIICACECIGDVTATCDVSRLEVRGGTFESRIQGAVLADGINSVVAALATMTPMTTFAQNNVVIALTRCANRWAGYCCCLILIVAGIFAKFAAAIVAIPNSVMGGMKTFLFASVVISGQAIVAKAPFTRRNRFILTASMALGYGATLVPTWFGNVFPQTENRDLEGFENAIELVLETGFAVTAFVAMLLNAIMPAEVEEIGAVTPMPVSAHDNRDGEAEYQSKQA

As to `CCCCCCCCCCCCCCCC(CO[C@@H]1OC(CO)[C@@H](O)C(O)C1O)(CO[C@@H]1OC(CO)[C@@H](O)C(O)C1O)Cc1cc(CC(CCCCCCCCCCCCCCC)(CO[C@@H]2OC(CO)[C@@H](O)C(O)C2O)CO[C@@H]2OC(CO)[C@@H](O)C(O)C2O)cc(CC(CCCCCCCCCCCCCCC)(CO[C@@H]2OC(CO)[C@@H](O)C(O)C2O)CO[C@@H]2OC(CO)[C@@H](O)C(O)C2O)c1` (stereo partly drawn) [MGA-C15], in data set [1], the “CMC” value is around 1.5 µM and the “CMC (wt %)” value is listed as around 0.0003 wt %. The same compound displayed a water-solubility in data set [2] of at least 20%. Further, in data set [3], the “MelBSt protein extraction efficiency compared with DDM” value is on record as “same level of protein extraction efficiency as DDM” and the “MelBSt extraction ability compared with DDM” value is “higher MelBSt extraction ability than DDM”. Besides, in data set [4], the “Rh (nm), hydrodynamic radius of micelle” value came out at 3.6 ± 0.02 nm.
Turning to `CCCCCCCCCCCCCC(CO[C@@H]1OC(CO)[C@@H](O)C(O)C1O)(CO[C@@H]1OC(CO)[C@@H](O)C(O)C1O)Cc1cc(CC(CCCCCCCCCCCCC)(CO[C@@H]2OC(CO)[C@@H](O)C(O)C2O)CO[C@@H]2OC(CO)[C@@H](O)C(O)C2O)cc(CC(CCCCCCCCCCCCC)(CO[C@@H]2OC(CO)[C@@H](O)C(O)C2O)CO[C@@H]2OC(CO)[C@@H](O)C(O)C2O)c1` (stereo partly drawn) [MGA-C13], in data set [5] (SEC, amphiphile-containing buffer, 0.2% amphiphile), the “size of protein-detergent complexes (PDCs) with β2AR” value is “smaller protein-detergent complexes (PDCs) than DDM”. For the same compound, in data set [5] (amphiphile-free running buffer), the “SEC profile of solubilized β2AR” value was “almost no change”. For the same compound, the “UapA stabilization effect compared with MNG-3” value in data set [6] (CMC+0.04 wt % or CMC+0.2 wt %, FIG. 25) is “far greater UapA stabilization effect than MNG-3”. Moreover, the “effect in maintaining folded UapA, ranking among MGAs” value in data set [6] (CMC+0.2 wt %, 40° C., 120 minutes) is on record as “had the highest effect”. Besides, in data set [1], the “CMC” value was around 3 µM and the “CMC (wt %)” value was around 0.0006 wt %. Also, in data set [3], the “MelBSt protein extraction efficiency compared with DDM” value is given as “same level of protein extraction efficiency as DDM” and the “MelBSt extraction ability compared with DDM” value is listed as “higher MelBSt extraction ability than DDM”. Besides, the “Rh (nm), hydrodynamic radius of micelle” value in data set [4] is 3.2 ± 0.03 nm.
